Data reported in ChEMBL document CHEMBL3580624 (J Nat Prod, 2015).
Active and inactive are the calls of the source. The rule behind the calls is not given here.

Legend:
Prolyl endopeptidase = target: T1, Prolyl endopeptidase (Homo sapiens, UniProt P48147); test: Inhibition of human recombinant POP pre-incubated for 15 mins before Z-Gly-Pro-AMC substrate addition and further incubated for 1 hr by fluorimetry
T1 sequence (P48147 whole entry): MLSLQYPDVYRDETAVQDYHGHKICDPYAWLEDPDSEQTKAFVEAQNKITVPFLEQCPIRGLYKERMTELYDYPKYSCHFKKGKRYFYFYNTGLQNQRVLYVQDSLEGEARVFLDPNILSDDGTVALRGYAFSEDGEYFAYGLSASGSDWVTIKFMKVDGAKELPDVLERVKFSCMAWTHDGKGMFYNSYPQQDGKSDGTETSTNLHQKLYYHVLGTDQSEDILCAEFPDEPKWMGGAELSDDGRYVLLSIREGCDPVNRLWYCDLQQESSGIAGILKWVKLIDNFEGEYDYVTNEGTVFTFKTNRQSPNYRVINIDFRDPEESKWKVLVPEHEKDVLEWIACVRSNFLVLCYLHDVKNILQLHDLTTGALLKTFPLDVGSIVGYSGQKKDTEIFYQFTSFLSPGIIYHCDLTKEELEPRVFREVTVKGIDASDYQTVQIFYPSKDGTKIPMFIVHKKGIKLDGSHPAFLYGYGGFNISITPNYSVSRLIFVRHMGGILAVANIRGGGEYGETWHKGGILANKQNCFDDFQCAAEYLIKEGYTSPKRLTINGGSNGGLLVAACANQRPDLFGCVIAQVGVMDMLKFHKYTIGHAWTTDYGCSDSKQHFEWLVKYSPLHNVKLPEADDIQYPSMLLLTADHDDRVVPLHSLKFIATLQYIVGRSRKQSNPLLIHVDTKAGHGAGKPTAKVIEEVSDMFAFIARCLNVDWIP

Bos taurus = organism: Bos taurus; test: Inhibition of bovine trypsin at 25 uM pre-incubated for 15 mins before Bz-Arg-AMC-HCl substrate addition and further incubated for 1 hr by fluorimetry
[1] = target: Chymotrypsinogen A (Bos taurus) (UniProt P00766); test: Inhibition of bovine alpha-chymotrypsin at 75 uM pre-incubated for 15 mins before Ala-Ala-Phe-AMC substrate addition and further incubated for 1 hr by fluorimetry

Q: With `CC[C@H](C)[C@@H]1NC(=O)[C@@H]2CCCN2C(=O)[C@H](CC(C)C)NC(=O)CNC(=O)[C@H](CC(N)=O)NC(=O)[C@H](CCCNC(=N)N)NC(=O)[C@H]([C@@H](C)O)NC(=O)[C@@H]2CSSC[C@@H]3NC(=O)[C@H]([C@@H](C)O)NC(=O)CNC(=O)CNC(=O)[C@H](C(C)C)NC(=O)[C@@H]4CSSC[C@H](NC(=O)[C@H]([C@@H](C)O)NC(=O)[C@H](CSSC[C@H](NC1=O)C(=O)NCC(=O)N[C@@H](CCC(=O)O)C(=O)N[C@@H](CO)C(=O)N4)NC(=O)CNC(=O)[C@@H]1CCCN1C(=O)[C@H]([C@@H](C)O)NC(=O)[C@H](CC(N)=O)NC3=O)C(=O)N[C@@H]([C@@H](C)O)C(=O)N[C@@H](Cc1c[nH]c3ccccc13)C(=O)N1CCC[C@H]1C(=O)N[C@@H](C(C)C)C(=O)N2` (stereo in doubt; form 1) as the compound, how does the IC50 (Prolyl endopeptidase) read?
A: 9.57 µM

Q: With `CC[C@H](C)[C@@H]1NC(=O)[C@@H]2CCCN2C(=O)[C@H](CC(C)C)NC(=O)CNC(=O)[C@H](CC(N)=O)NC(=O)[C@H](CCCNC(=N)N)NC(=O)[C@H]([C@@H](C)O)NC(=O)[C@@H]2CSSC[C@@H]3NC(=O)[C@H]([C@@H](C)O)NC(=O)CNC(=O)CNC(=O)[C@H](C(C)C)NC(=O)[C@@H]4CSSC[C@H](NC(=O)[C@H]([C@@H](C)O)NC(=O)[C@H](CSSC[C@H](NC1=O)C(=O)NCC(=O)N[C@@H](CCC(=O)O)C(=O)N[C@@H](CO)C(=O)N4)NC(=O)CNC(=O)[C@@H]1CCCN1C(=O)[C@H]([C@@H](C)O)NC(=O)[C@H](CC(N)=O)NC3=O)C(=O)N[C@@H]([C@@H](C)O)C(=O)N[C@@H](Cc1c[nH]c3ccccc13)C(=O)N1CCC[C@H]1C(=O)N[C@@H](C(C)C)C(=O)N2` (stereo in doubt; form 2) [listing 1 of 2 here] as the compound, how does the IC50 (Prolyl endopeptidase) read?
A: 8.6 µM

Q: How did the inhibition (Bos taurus) turn out when `CC[C@H](C)[C@@H]1NC(=O)[C@@H]2CCCN2C(=O)[C@H](CC(C)C)NC(=O)CNC(=O)[C@H](CC(N)=O)NC(=O)[C@H](CCCNC(=N)N)NC(=O)[C@H]([C@@H](C)O)NC(=O)[C@@H]2CSSC[C@@H]3NC(=O)[C@H]([C@@H](C)O)NC(=O)CNC(=O)CNC(=O)[C@H](C(C)C)NC(=O)[C@@H]4CSSC[C@H](NC(=O)[C@H]([C@@H](C)O)NC(=O)[C@H](CSSC[C@H](NC1=O)C(=O)NCC(=O)N[C@@H](CCC(=O)O)C(=O)N[C@@H](CO)C(=O)N4)NC(=O)CNC(=O)[C@@H]1CCCN1C(=O)[C@H]([C@@H](C)O)NC(=O)[C@H](CC(N)=O)NC3=O)C(=O)N[C@@H]([C@@H](C)O)C(=O)N[C@@H](Cc1c[nH]c3ccccc13)C(=O)N1CCC[C@H]1C(=O)N[C@@H](C(C)C)C(=O)N2` (stereo in doubt; form 2) [listing 2 of 2 here] was run?
A: inactive

Q: And the inhibition [1]?
A: inactive
